Experimental data taken from patent publication US11655477B2, “Methods for thaxtomin production and engineered non-native Streptomyces with increased thaxtomin production” (priority 2017, dated 2023).
Entries after “also recorded” stand apart in the source; their conditions may differ. Where two headings read alike, the source gives them in different places.

Assays:
radish seedling = test: Herbicidal activity assay, radish seedling growth inhibition on agar plates; type: in vivo; conditions: for herbicidal activity / growth inhibition toward radish seedling (in words): DMSO as negative control; for IC50: total seedling length after 6 days, percent inhibition relative to DMSO control, four-parameter logistic fit, read-out: I50 (herbicidal activity, radish seedling assay)
Protocol: Serial concentrations (0 to 4 μM) of thaxtomins in DMSO were added into 20 mL of 1.5% warm agar solution with gentle agitation. DMSO was included as the negative control. The solution was then poured into the plate for solidification at room temperature for 30 min. Radish seeds (Burpee) were surface disinfested, pregerminated and selected when the radicle was […] and just emerged from the seed coat. Six radish seedlings were equally located on the surface of each plate with the root ends all pointed in the same direction. Agar plates were covered, sealed with Parafilm. The seedlings in the agar plates grew at room temperature under fluorescent lighting (12 h per day for 6 days), and total seedling lengths were then recorded. Three plates were set up for each dosage of each compound. Percent inhibition relative to the mean growth response in DMSO treated control plates was then calculated. Dose-response curves were fit to a four-parameter logistic model as described in Streibig, J C, et al., 1993 (which is hereby incorporated by reference herein), and Iso values were estimated from these curves.

Jurkat cells = test: MTT assay to characterize cytotoxicity, Jurkat cells; type: cell-based, human; conditions: for cytotoxicity toward Jurkat cell line (in words): PBS as negative control; for IC30 (30% inhibitory concentration) toward Jurkat cells: human T-cell leukemia Jurkat, MTT, 48 to 72 h
Protocol: (§1) PC-3 and Jurkat cells were cultured in DMEM or RPM11640 medium containing 10% fetal bovine serum and 100 U/mL penicillin and streptomycin, and maintained at 37° C. in a humidified incubator under 5% CO2. The cells (1×10^4 for Jurkat, and 5,000 for PC-3 in 100 μL) were seeded into 96-well plates and incubated overnight. Varying concentrations of purified compounds (0 μM, 12.5 μM, 25 μM, 50 μM and 100 μM) were added to the wells. After incubation at 37° C. for 48 to 72 h, 10 μL of MTT (5 mg/mL) in PBS was added and incubated for 4 h, followed by aspiration of the medium. DMSO (100 μL) was added to each well to dissolve the MTT in the wells, and the plates were agitated for 1 h for recording the absorbance at 570 nm using UV/vis microplate spectrophotometer (BioTek). Three to six replications were performed per treatment of each sample.

PC-3 cells = test: MTT assay to characterize cytotoxicity, PC-3 cells; type: cell-based, human; conditions: for cytotoxicity toward PC-3 cell line (in words): PC-3, PBS as negative control; for IC30 (30% inhibitory concentration) toward PC-3 cells: prostate cancer PC-3, MTT, 48 to 72 h
Protocol: as §1

cellulose biosynthesis = conditions: background statement; cited from earlier work

| SMILES | herbicidal activity / growth inhibition toward radish seedling (in words) (radish seedling) | IC50 (radish seedling) | cytotoxicity toward Jurkat cell line (in words) (Jurkat cells) | IC30 (30% inhibitory concentration) toward Jurkat cells (Jurkat cells) | cytotoxicity toward PC-3 cell line (in words) (PC-3 cells) | IC30 (30% inhibitory concentration) toward PC-3 cells (PC-3 cells) | concentration range of inhibition of cellulose biosynthesis (cellulose biosynthesis) | IC50 (radish seedling; Raphanus sativus, 144 h) |
| --- | --- | --- | --- | --- | --- | --- | --- | --- |
| CN1C(=O)C(O)(Cc2ccccc2O)N(C)C(=O)C1Cc1c[nH]c2cccc([N+](=O)[O-])c12 (centres unmarked) [Compound 2, ortho-thaxtomin A] | potent growth inhibition activity | 0.81 ± 0.04 µM | weak cytotoxicity | 56.46 ± 12.04 µM | weak cytotoxicity | 42.38 ± 13.62 µM | – | – |
| CN1C(=O)[C@](O)(Cc2cccc(O)c2)N(C)C(=O)[C@@H]1Cc1c[nH]c2cccc([N+](=O)[O-])c12 [Compound 1, thaxtomin A, reference compound] | potent growth inhibition activity | 0.45 ± 0.05 µM | weak cytotoxicity | 70.84 ± 16.68 µM | weak cytotoxicity | 80.28 ± 10.50 µM | in the nM range | – |
| CN1C(=O)[C@](O)(Cc2cccc(O)c2)N(C)C(=O)[C@@H]1Cc1c[nH]c2ccc(F)c([N+](=O)[O-])c12 [Compound 9, 5-F-thaxtomin A] | potent herbicidal activity; also recorded: potent growth inhibition activity | – | weak cytotoxicity | 63.26 ± 9.29 µM | weak cytotoxicity | 56.76 ± 17.12 µM | – | 0.56 ± 0.03 µM |
| CN1C(=O)[C@](O)(Cc2ccccc2)N(C)C(=O)[C@@H]1Cc1c[nH]c2cccc([N+](=O)[O-])c12 [Compound 3, thaxtomin B] | – | – | weak cytotoxicity | 50.92 ± 13.17 µM | weak cytotoxicity | 37.87 ± 13.46 µM | – | – |
